Data on 25 compounds can be found in patent US20240115557A1, “INHIBITORS OF RNA-GUIDED NUCLEASES AND USES THEREOF” (The Brigham and Women's Hospital, Inc., priority 2022, published 2024).

The assay deals with SpCas9 (Streptococcus pyogenes serotype M1, UniProt Q99ZW2). Nature of the assay: eGFP disruption assay, SpCas9, U2OS.eGFP.PEST cells. It is filed as cell-based. The settings on record: for Normalized Z rep1 / Z score Rep1: replicate 1; for SpCas9 eGFP disruption Rep1: replicate 1, raw readout; for Normalized Z rep2 / Z socre Rep2: replicate 2; for SpCas9 eGFP disruption Rep2: replicate 2, raw readout. The gist of the method: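 U2OS.eGFP.PEST cells nucleofected with 300 ng SpCas9 plasmid plus 30 ng eGFP-targeting gRNA plasmid, or with SpCas9 RNP (10 pmol protein, 12 pmol gRNA). Cells then incubated 24 h with compound (20 μM in screening). Inhibition is read as rescue of eGFP fluorescence in paraformaldehyde-fixed, nuclear-stained cells.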
SpCas9, sequence (Q99ZW2 whole entry): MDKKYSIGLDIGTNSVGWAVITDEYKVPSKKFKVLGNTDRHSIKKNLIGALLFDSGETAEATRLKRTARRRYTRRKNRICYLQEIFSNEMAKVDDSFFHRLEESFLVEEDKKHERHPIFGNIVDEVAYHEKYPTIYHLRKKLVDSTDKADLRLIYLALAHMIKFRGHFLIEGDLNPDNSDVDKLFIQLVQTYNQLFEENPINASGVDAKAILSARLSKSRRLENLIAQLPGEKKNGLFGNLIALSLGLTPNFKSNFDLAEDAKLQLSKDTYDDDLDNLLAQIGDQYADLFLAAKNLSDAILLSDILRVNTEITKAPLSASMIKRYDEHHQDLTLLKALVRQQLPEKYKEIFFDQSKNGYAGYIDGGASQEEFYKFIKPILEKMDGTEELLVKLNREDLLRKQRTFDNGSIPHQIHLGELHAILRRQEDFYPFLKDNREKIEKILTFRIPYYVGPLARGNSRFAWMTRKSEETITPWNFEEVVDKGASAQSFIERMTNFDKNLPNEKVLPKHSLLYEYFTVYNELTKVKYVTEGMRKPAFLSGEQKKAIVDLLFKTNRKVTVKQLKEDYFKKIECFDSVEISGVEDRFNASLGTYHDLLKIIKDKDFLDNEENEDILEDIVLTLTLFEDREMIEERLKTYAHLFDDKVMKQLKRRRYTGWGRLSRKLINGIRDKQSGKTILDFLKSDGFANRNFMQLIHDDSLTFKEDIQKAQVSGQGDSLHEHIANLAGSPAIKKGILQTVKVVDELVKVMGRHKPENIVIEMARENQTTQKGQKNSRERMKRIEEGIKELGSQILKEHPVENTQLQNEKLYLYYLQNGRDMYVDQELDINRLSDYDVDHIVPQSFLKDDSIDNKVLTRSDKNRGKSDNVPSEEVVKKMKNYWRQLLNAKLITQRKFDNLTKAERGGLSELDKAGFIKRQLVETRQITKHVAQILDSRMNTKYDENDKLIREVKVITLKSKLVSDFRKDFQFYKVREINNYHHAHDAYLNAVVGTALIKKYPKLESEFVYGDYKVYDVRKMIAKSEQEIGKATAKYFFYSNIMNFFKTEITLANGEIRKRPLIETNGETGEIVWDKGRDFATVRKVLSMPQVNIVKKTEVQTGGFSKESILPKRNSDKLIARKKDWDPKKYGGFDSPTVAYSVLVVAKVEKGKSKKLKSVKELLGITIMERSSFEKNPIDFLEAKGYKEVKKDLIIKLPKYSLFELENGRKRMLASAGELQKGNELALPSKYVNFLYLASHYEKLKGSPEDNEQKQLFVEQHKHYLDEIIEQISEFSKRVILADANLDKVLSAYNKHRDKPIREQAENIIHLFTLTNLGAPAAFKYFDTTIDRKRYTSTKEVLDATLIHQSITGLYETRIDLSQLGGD

[1] abbreviates: Cas9 = lower control, Ctrl = upper control.
Setting [2] is: normalized, lower control about 0, upper control about 1.

`CS(=O)(=O)Nc1cnc(N2CCC(CCN3CCOCC3)CC2)c(C(=O)O)c1` [Compound F293-0898]: the “Normalized Z rep1” value is −0.44, the “Z score Rep1” value was −3.21, the “SpCas9 eGFP disruption Rep1” value is reported as 56.403 and the “Normalized Z rep2” value is listed as −0.11. The “Z socre Rep2” value is −1.00 and the “SpCas9 eGFP disruption Rep2” value is recorded as 60.078.
With `Cc1ccccc1OCc1nn2c(C(C)C)nnc2s1` [Compound D727-0350], the “Normalized Z rep1” value is −0.47, the “Z score Rep1” value is recorded as −3.41, the “SpCas9 eGFP disruption Rep1” value came to 55.746 and the “Normalized Z rep2” value is recorded as −0.04. Further, the “Z socre Rep2” value is on record as −0.36 and the “SpCas9 eGFP disruption Rep2” value is 61.985.
Regarding `CCCN1CCN(c2ccc(C(=O)O)cc2NC(=O)c2ccccc2Cl)CC1` [Compound F086-0004], the “Normalized Z rep1” value is recorded as −0.17, the “Z score Rep1” value is −1.20, the “SpCas9 eGFP disruption Rep1” value was determined as 63.051 and the “Normalized Z rep2” value was −0.29. Further, the “Z socre Rep2” value is −2.70 and the “SpCas9 eGFP disruption Rep2” value is reported as 54.937.
On to `CC(C)NC(=O)CN1CCN(c2ccc(C(=O)O)cc2NC(=O)c2ccccc2Cl)CC1` [Compound F086-0028], for which the “Normalized Z rep1” value is −0.55, the “Z score Rep1” value is recorded as −3.98, the “SpCas9 eGFP disruption Rep1” value is 53.848 and the “Normalized Z rep2” value is on record as −0.21. Also, the “Z socre Rep2” value was −1.95 and the “SpCas9 eGFP disruption Rep2” value came out at 57.208.
For the compound `Cc1nc2ccccc2n1Cc1nnc2n1N=C(N)CS2` [Compound D727-0339], the “Normalized Z rep1” value was −0.25, the “Z score Rep1” value was −1.83, the “SpCas9 eGFP disruption Rep1” value stood at 60.982 and the “Normalized Z rep2” value is recorded as −0.15. Further, the “Z socre Rep2” value is −1.41 and the “SpCas9 eGFP disruption Rep2” value is 58.84.
For the compound `CN(C)S(=O)(=O)Nc1cnc(N2CCC(CCN3CCCCC3)CC2)c(C(=O)O)c1` [Compound F293-0962], the “Normalized Z rep1” value was −0.18, the “Z score Rep1” value is reported as −1.30, the “SpCas9 eGFP disruption Rep1” value worked out at 62.732 and the “Normalized Z rep2” value is −0.33. Besides, the “Z socre Rep2” value is on record as −3.10 and the “SpCas9 eGFP disruption Rep2” value was determined as 53.726.
Consider `CS(=O)(=O)Nc1cnc(N2CCC(C(N)=O)(N3CCCCC3)CC2)c(C(=O)O)c1` [Compound F293-0183], for which the “Normalized Z rep1” value is reported as −0.19, the “Z score Rep1” value is given as −1.40, the “SpCas9 eGFP disruption Rep1” value is reported as 62.398 and the “Normalized Z rep2” value is on record as −0.33. The “Z socre Rep2” value is −3.08 and the “SpCas9 eGFP disruption Rep2” value is 53.8.
Regarding `CN(C)S(=O)(=O)Nc1ccc(N2CCC(C(N)=O)(N3CCCCC3)CC2)c(C(=O)O)c1` [Compound F294-0183], the “Normalized Z rep1” value is given as −0.33, the “Z score Rep1” value is given as −2.37, the “SpCas9 eGFP disruption Rep1” value amounted to 59.182 and the “Normalized Z rep2” value is reported as −0.30. Also, the “Z socre Rep2” value is on record as −2.83 and the “SpCas9 eGFP disruption Rep2” value was 54.549.
`CN(C)S(=O)(=O)Nc1ccc(N2CCCC(CN3CCCC3)C2)c(C(=O)O)c1` (stereo not drawn) [Compound F294-0983]: the “Normalized Z rep1” value was −0.40, the “Z score Rep1” value is given as −2.90, the “SpCas9 eGFP disruption Rep1” value is listed as 57.443 and the “Normalized Z rep2” value is reported as −0.35. Further, the “Z socre Rep2” value is −3.23 and the “SpCas9 eGFP disruption Rep2” value worked out at 53.339.
Turning to `COCCCNC(=O)CN1CCN(c2ccc(C(=O)O)cc2NC(=O)c2ccccc2Cl)CC1` [Compound F086-0033], the “Normalized Z rep1” value is −0.26, the “Z score Rep1” value is listed as −1.88, the “SpCas9 eGFP disruption Rep1” value is 60.787 and the “Normalized Z rep2” value was −0.24. Also, the “Z socre Rep2” value is listed as −2.23 and the “SpCas9 eGFP disruption Rep2” value turned out to be 56.359.
For the compound `O=C(CCS(=O)(=O)c1ccc(Cl)cc1)Nc1nc(-c2ccncc2)cs1` [BRD7586], the midpoint of the response (EC50 in eGFP disruption assay, U2OS.eGFP.PEST, SpCas9 plasmid and sgRNA plasmid, 0.3 uM to 20 uM, 24 h (FIG. 44A/C)), the EC50, lay at 5.55 µM; the EC50 (EC50 in the eGFP disruption assay, from three independent experiments) turned out to be 6.2 ± 1.2 µM. Further, the “Potency relative to BRD0539” value (more potent than BRD0539) is around 2 fold.
In the case of `c1ccc(Cc2nn3c(-c4cccnc4)nnc3s2)cc1` [Compound D727-0066], the “Normalized Z rep1” value is given as −0.11, the “Z score Rep1” value is on record as −0.78, the “SpCas9 eGFP disruption Rep1” value was 64.43 and the “Normalized Z rep2” value is −0.15. Besides, the “Z socre Rep2” value is given as −1.42 and the “SpCas9 eGFP disruption Rep2” value is recorded as 58.807.
In the case of `CCN(Cc1ccccc1)c1ccc(NS(=O)(=O)c2ccc(OC)cc2)cc1C(=O)O` [Compound F294-0003], the “Normalized Z rep1” value was −0.48, the “Z score Rep1” value is listed as −3.46, the “SpCas9 eGFP disruption Rep1” value was 55.595 and the “Normalized Z rep2” value is reported as −0.10. Moreover, the “Z socre Rep2” value is recorded as −0.96 and the “SpCas9 eGFP disruption Rep2” value was found to be 60.198.
For the compound `NS(=O)(=O)c1ccc(CCNC(=O)C2=Cc3sc4c(c3CS2)CCCC4)cc1` [Compound E722-2588], the “Normalized Z rep1” value is reported as −0.16, the “Z score Rep1” value was −1.14, the “SpCas9 eGFP disruption Rep1” value is reported as 63.246 and the “Normalized Z rep2” value came to 0.13. For the same compound, the “Z socre Rep2” value stood at 1.22 and the “SpCas9 eGFP disruption Rep2” value stood at 66.773.
`Cc1ccccc1OCc1nn2c(C(C)(C)C)nnc2s1` [Compound D727-0351]: the “Z score Rep1” value came to 0.29 and the “Z socre Rep2” value is reported as 1.32. In addition, under setting [1], the “SpCas9 eGFP disruption Rep1” value is on record as 67.967 and the “SpCas9 eGFP disruption Rep2” value came out at 67.06. Besides, under setting [2], the “Normalized Z rep1” value was 0.04 and the “Normalized Z rep2” value was found to be 0.14.
With `Brc1ccc(OCc2nn3c(-c4ccccn4)nnc3s2)cc1` [Compound D727-0522], the “Normalized Z rep1” value is recorded as −0.12, the “Z score Rep1” value is on record as −0.85, the “SpCas9 eGFP disruption Rep1” value was determined as 64.203 and the “Normalized Z rep2” value worked out at 0.08. Further, the “Z socre Rep2” value came out at 0.79 and the “SpCas9 eGFP disruption Rep2” value is listed as 65.458.
`Fc1ccc(OCc2nn3c(-c4ccccn4)nnc3s2)cc1` [Compound D727-0525]: the “Normalized Z rep1” value was −0.49, the “Z score Rep1” value is on record as −3.56, the “SpCas9 eGFP disruption Rep1” value was determined as 55.263 and the “Normalized Z rep2” value is reported as −0.39. For the same compound, the “Z socre Rep2” value is on record as −3.59 and the “SpCas9 eGFP disruption Rep2” value is given as 52.257.
In the case of `Nc1c(C(=O)N2CCCCC2)sc(=S)n1Cc1ccccc1` [Compound F128-0042], the “Normalized Z rep1” value is given as −0.22, the “Z score Rep1” value is −1.57, the “SpCas9 eGFP disruption Rep1” value came to 61.817 and the “Normalized Z rep2” value was −0.36. In addition, the “Z socre Rep2” value is recorded as −3.35 and the “SpCas9 eGFP disruption Rep2” value amounted to 52.985.
For the compound `Nc1c(C(=O)N2CCCC2)sc(=S)n1Cc1ccccc1` [Compound F128-0041], the “Normalized Z rep1” value is given as −0.05, the “Z score Rep1” value is −0.34, the “SpCas9 eGFP disruption Rep1” value was found to be 65.885 and the “Normalized Z rep2” value is reported as −0.15. Further, the “Z socre Rep2” value is −1.37 and the “SpCas9 eGFP disruption Rep2” value turned out to be 58.95.
As for `NC(=O)c1sc(=S)n2c1[nH]c(=O)c1ccc(Cl)cc12` [Compound F083-0067], the “Normalized Z rep1” value was −0.09, the “Z score Rep1” value is given as −0.66, the “SpCas9 eGFP disruption Rep1” value is 64.842 and the “Normalized Z rep2” value is on record as −0.23. Moreover, the “Z socre Rep2” value is on record as −2.14 and the “SpCas9 eGFP disruption Rep2” value was found to be 56.626.
Turning to `CN(C)S(=O)(=O)Nc1ccc(N2CCC(CCN3CCOCC3)CC2)c(C(=O)O)c1` [Compound F294-0900], the “Normalized Z rep1” value was −0.19, the “Z score Rep1” value is −1.40, the “SpCas9 eGFP disruption Rep1” value was 62.393 and the “Normalized Z rep2” value is −0.24. Also, the “Z socre Rep2” value is on record as −2.23 and the “SpCas9 eGFP disruption Rep2” value is on record as 56.357.
Regarding `NC(=O)c1c(NC(=O)COCc2cc(-c3ccc4c(c3)OCO4)on2)sc2c1CCCC2` [Compound E613-0091], the “Normalized Z rep1” value was −0.19, the “Z score Rep1” value was −1.37, the “SpCas9 eGFP disruption Rep1” value was determined as 62.484 and the “Normalized Z rep2” value is −0.32. In addition, the “Z socre Rep2” value is listed as −2.94 and the “SpCas9 eGFP disruption Rep2” value came out at 54.219.
Consider `O=C(O)c1cc(NS(=O)(=O)c2cc(F)ccc2F)cnc1N1CCC(N2CCCCC2)CC1` [Compound F293-0616], for which the “Normalized Z rep1” value is reported as −0.36, the “Z score Rep1” value is −2.62, the “SpCas9 eGFP disruption Rep1” value is on record as 58.357 and the “Normalized Z rep2” value is listed as −0.03. The “Z socre Rep2” value is on record as −0.30 and the “SpCas9 eGFP disruption Rep2” value is recorded as 62.171.
As to `Nc1c(C(=O)NCC2CCCO2)sc(=S)n1-c1ccc(Cl)cc1` (stereo not drawn) [Compound F128-0076], the “Normalized Z rep1” value is on record as −0.08, the “Z score Rep1” value is recorded as −0.57, the “SpCas9 eGFP disruption Rep1” value is 65.12 and the “Normalized Z rep2” value is −0.12. Also, the “Z socre Rep2” value is −1.11 and the “SpCas9 eGFP disruption Rep2” value is 59.748.
In the case of `O=C(O)c1ccc(N2CCN(c3ccccn3)CC2)c(NC(=O)c2ccc(Br)cc2)c1` [Compound F086-0619], the “Normalized Z rep1” value was −0.11, the “Z score Rep1” value is −0.82, the “SpCas9 eGFP disruption Rep1” value amounted to 64.289 and the “Normalized Z rep2” value is given as −0.20. Further, the “Z socre Rep2” value is given as −1.83 and the “SpCas9 eGFP disruption Rep2” value is reported as 57.556.

As a reminder, the EC50 is the midpoint of the concentration-response curve.
